In US20050123633A1, “Biological activity-promoting compositions containing soybean germ-origin isoflavone aglycon” (priority 2002, published 2005):

Experiments:
Assay type in all cases: in vivo, rat
OVX female SD rats [1] = test: Blood neutral fat (TG) measurement; conditions: after 28 days administration and 24-hour fasting, isoflavone aglycones 20 mg per kg body weight, 17 β-estradiol 1 μg per animal per day, mean ± SD
Source text: (§1) 1) Female SD rats (seven weeks) were procured, and were preliminarily kept for one week. The healthy female SD rats to be used as subjects (eight weeks) were raised in groups with uniform body weight. Rats other than those in the Sham group were ovarectomized (OVX). The Sham group was only laparotomized. After preliminarily keeping for one week after the OVX procedure, the rats were allowed free intake of high-fat feed having the composition shown in Table 2 for a period of 28 days starting on the day following preliminary keeping.
(§2) The rats were also allowed free intake of well water (3 ppm chlorine added). In addition, the environment of the animal facility had constant temperature and humidity of 23±2° C. and 55±10%. The atmosphere conditioning method involved ventilation (15 cycles/h), and the light time was from 8 am to 8 pm. The keeping apparatuses were stainless steel metabolic cages.
(§3) Upon completion of administration on day 28, 24-hour fasting was performed, and the rats were necropsied under ether anesthetization in order to collect blood from the abdominal aorta. Regarding serum cholesterol, measurement of total serum cholesterol, HDL cholesterol, LDL cholesterol and cholesterol ester ratio were carried out, and blood neutral fat (TG), blood free fatty acid (FFA) and leptin were measured using enzymatic methods. In addition, the uterus weight per 100 g body weight was measured for the necropsied females rats. Also, body fat determination was made by measuring the weight of removed posterior abdominal wall fat, mesenteric fat, perirenal fat and periovarian fat per 100 g of body weight. The thymus weights for the necropsied female rats were measured based on the weight per 100 g of body weight.
(§4) The results of measurement for each group were expressed as mean values±standard deviations for each of the measured parameters, and significant differences were determined using Student's t-test. Evaluation was made using the two-sided test, where significance levels were taken as 5 and 1%.

OVX female SD rats [2] = test: Serum cholesterol measurement; conditions: after 28 days administration and 24-hour fasting, isoflavone aglycones 20 mg per kg body weight, 17 β-estradiol 1 μg per animal per day, mean ± SD; for Cholesterol ester (%): cholesterol ester ratio
Source text: as §1, §2, §3
(§5) Evaluation was made using the two-sided test, where significance levels were taken as 5 and 1%.

OVX female SD rats [3] = test: Body fat determination (weight of removed fat); conditions: at necropsy after 28 days, isoflavone aglycones 20 mg per kg body weight, 17 β-estradiol 1 μg per animal per day, mean ± SD
Source text: as §1, §2, §3, §4

OVX female SD rats [4] = test: Leptin level measurement; conditions: after 28 days administration and 24-hour fasting, isoflavone aglycones 20 mg per kg body weight, 17 β-estradiol 1 μg per animal per day, mean ± SD
Source text: as §1, §2, §3, §4

OVX female SD rats [5] = test: Thymus weight measurement; conditions: for Change in Thymus Weight: at necropsy after 28 days, isoflavone aglycones 20 mg per kg body weight, 17 β-estradiol 1 μg per animal per day, mean ± SD
Source text: as §1, §2, §3, §4

OVX female SD rats [6] = test: Blood free fatty acid (FFA) measurement; conditions: after 28 days administration and 24-hour fasting, isoflavone aglycones 20 mg per kg body weight, 17 β-estradiol 1 μg per animal per day, mean ± SD
Source text: as §1, §2, §3, §4

OVX female SD rats [7] = test: Urine NO2/NO3 measurement (24-hour accumulated urine); conditions: 17 β-estradiol 1 μg per animal per day, mean ± SD
Source text: as §1, §2, §3, §4

OVX female SD rats [8] = test: Body weight measurement in OVX rats on high-fat feed; conditions: 17 β-estradiol 1 μg per animal per day, mean ± SD
Source text: as §1, §2
The body weights of all rats were measured once on days 0, 7, 14, 21 and 28.
as §5

OVX female SD rats [9] = test: Overall evaluation of biological activity promotion over all measured parameters; conditions: at an administered amount of 1/4000 relative to isoflavone aglycones
Source text: as §1
Consequently, results were obtained that caused concern over side effects when administered at high dosages.

[10] = day 0, isoflavone aglycones 20 mg per kg body weight
[11] = day 7, isoflavone aglycones 20 mg per kg body weight
[12] = day 14, isoflavone aglycones 20 mg per kg body weight
[13] = day 21, isoflavone aglycones 20 mg per kg body weight
[14] = day 28, isoflavone aglycones 20 mg per kg body weight
[15] = day 0, isoflavone aglycones 20 mg per kg body weight in feed
[16] = day 7, isoflavone aglycones 20 mg per kg body weight in feed
[17] = day 14, isoflavone aglycones 20 mg per kg body weight in feed
[18] = day 21, isoflavone aglycones 20 mg per kg body weight in feed
[19] = day 28, isoflavone aglycones 20 mg per kg body weight in feed

| SMILES | Change in TG (blood neutral fat) (OVX female SD rats [1]) | Serum HDL cholesterol (OVX female SD rats [2]) | Serum LDL cholesterol (OVX female SD rats [2]) | Serum Total cholesterol (OVX female SD rats [2]) | Cholesterol ester (%) (OVX female SD rats [2]) | Body Fat: Mesenteric fat (OVX female SD rats [3]) | Body Fat: Periovarian fat (OVX female SD rats [3]) | Body Fat: Perirenal fat (OVX female SD rats [3]) | Body Fat: posterior abdominal wall fat (OVX female SD rats [3]) | Change in Leptin (OVX female SD rats [4]) | Change in Thymus Weight (OVX female SD rats [5]) | Change in FFA (blood free fatty acid) (OVX female SD rats [6]) | Change in NO2/NO3 (urinary) (OVX female SD rats [7]; [10]) | Change in NO2/NO3 (urinary) (OVX female SD rats [7]; [11]) | Change in NO2/NO3 (urinary) (OVX female SD rats [7]; [12]) | Change in NO2/NO3 (urinary) (OVX female SD rats [7]; [13]) | Change in NO2/NO3 (urinary) (OVX female SD rats [7]; [14]) | Change in Body Weight (OVX female SD rats [8]; [15]) | Change in Body Weight (OVX female SD rats [8]; [16]) | Change in Body Weight (OVX female SD rats [8]; [17]) | further results |
| --- | --- | --- | --- | --- | --- | --- | --- | --- | --- | --- | --- | --- | --- | --- | --- | --- | --- | --- | --- | --- | --- |
| O=c1c(-c2ccc(O)cc2)coc2cc(O)ccc12 [daidzein] | 104.8 ± 16.71 mg/dL | 42.6 ± 2.25 mg/dL | 36.3 ± 3.45 mg/dL | 81.8 ± 2.57 mg/dL | 70.1 ± 3.01% | 2.8 ± 0.18 g/100 g; body weight | 3.1 ± 0.17 g/100 g; body weight | 3.5 ± 0.20 g/100 g; body weight | 2.6 ± 0.23 g/100 g; body weight | 1.7 ± 0.12 ng/mL | 0.130 ± 0.02 g/100 g; body weight | 379.2 ± 24.45 mg/dL | 6.0 ± 0.53 µmol | 6.4 ± 0.54 µmol | 6.4 ± 0.43 µmol | 6.6 ± 0.40 µmol | 6.0 ± 0.40 µmol | 191.0 ± 7.31 g | 216.1 ± 6.86 g | 230.6 ± 6.58 g | thymus weight relative to the comparative group 1 (Sham) and the test group 1 (OVX), in words (OVX female SD rats [5]; 28 days): increase in weight; Change in Body Weight (OVX female SD rats [8]; [18]): 245.4 ± 7.07 g; Change in Body Weight (OVX female SD rats [8]; [19]): 257.4 ± 7.71 g |
| C[C@]12CC[C@@H]3c4ccc(O)cc4CC[C@H]3[C@@H]1CC[C@@H]2O [estradiol, 17 β-estradiol] | 105.1 ± 5.37 mg/dL | 35.9 ± 3.38 mg/dL | 38.2 ± 1.74 mg/dL | 72.1 ± 3.86 mg/dL | 70.7 ± 2.80% | 2.5 ± 0.19 g/100 g; body weight | 2.8 ± 0.27 g/100 g; body weight | 3.2 ± 0.22 g/100 g; body weight | 1.9 ± 0.10 g/100 g; body weight | 0.7 ± 0.28 ng/mL | 0.112 ± 0.01 g/100 g; body weight | 362.8 ± 24.41 mg/dL | 6.1 ± 0.29 µmol | 7.0 ± 0.60 µmol | 7.8 ± 0.59 µmol | 9.0 ± 0.76 µmol | 9.4 ± 0.39 µmol | 192.5 ± 7.12 g |  |  | stimulatory (agonistic) action with respect to biological activity, in words (OVX female SD rats [9]): high |
| O=c1c(-c2ccc(O)cc2)coc2cc(O)cc(O)c12 [genistein] | 116.9 ± 9.90 mg/dL |  | 40.6 ± 1.76 mg/dL | 85.8 ± 2.53 mg/dL |  | 2.6 ± 0.14 g/100 g; body weight | 3.0 ± 0.26 g/100 g; body weight | 3.7 ± 0.17 g/100 g; body weight | 2.8 ± 0.25 g/100 g; body weight | 1.9 ± 0.25 ng/mL | 0.110 ± 0.02 g/100 g; body weight | 400.0 ± 19.01 mg/dL | 6.1 ± 0.34 µmol | 6.4 ± 0.39 µmol | 6.3 ± 0.56 µmol | 6.2 ± 0.40 µmol | 6.4 ± 0.4 µmol | 197.3 ± 10.18 g | 216.9 ± 8.53 g | 231.9 ± 9.77 g | Change in Body Weight (OVX female SD rats [8]; [18]): 249.4 ± 9.81 g; Change in Body Weight (OVX female SD rats [8]; [19]): 266.8 ± 8.6 g |
